Measured values taken from patent US20240408140A1, “ENHANCING ANTICANCER FUNCTION OF NATURAL KILLER CELL THROUGH REGULATION OF ANTIOXIDANT MECHANISM” (priority 2021, published 2024).

System: Yac-1 cell line
Assay: Cytotoxicity of NK cells cultured in NK cell activation medium including antioxidants, co-culture with Yac-1 cells
Conditions: mouse spleen NK cells cultured 30-60 minutes in medium with 1 mM N-acetylcysteine or 0.5 mM TEMPOL; compared with normal NK cells (control) (FIG. 6)
Procedure: NK cell activation media were prepared as follows. In an NK cell culture medium obtained by mixing 10% FBS, 1× penicillin/streptomycin, 1× glutamax, 1× HEPES, 0.5 mM sodium pyruvate, 50 μM 2-mercaptoethanol, and 50 ng/ml interleukin-2 (IL-2) in RPMI1640 medium, 1 mM N-acetylcysteine or 0.5 mM 4-hydroxy-2,2,6,6-tetramethylpiperidine 1-oxyl (TEMPOL) was blended.
The Yac-1 cell line was added in RPMI1640 (10% FBS/RPMI1640) medium including 10% FBS, treated with 5 μg/ml Calcein AM (Invitrogen, C1430), and cultured for 1 hour in a cell culture machine at 37° C. in the presence of 5% carbon dioxide conditions to label with fluorescence. Afterwards, the NK cells and fluorescence-labeled Yac-1 cells were mixed in a ratio of 10:1, 5:1, and 1:1 and dispensed in a round bottom 96-well plate (SPL, #34096). Additionally, fluorescence-labeled Yac-1 cells were also dispensed into the wells of the maximum (Maximum, 10% FBS/RPMI1640 including 2% Triton X-100) and minimum (Minimum, 10% FBS/RPMI1640) to calculate the cytotoxicity rate. […] After culture for 4 hours, the medium was mixed well and centrifuged at 100×g for 5 minutes, the supernatant was transferred to a black plate (SPL, #30296), and fluorescence was measured using a fluorescence microplate reader. […]
Cytotoxicity=[(Test fluorescence−minimum fluorescence)/(maximum fluorescence−minimum fluorescence)]×100 [Equation 1] […]

With CC1(C)CC(O)CC(C)(C)N1[O] [Tempol, 4-hydroxy-2,2,6,6-tetramethylpiperidine 1-oxyl] the cytotoxicity was “higher cytotoxicity than normal NK cells”.
